Measurements as given in patent US20160095923A1, “ORAL COMPOSITION COMPRISNG (+)-CATECHIN” (VALORE, priority 2013, published 2016).
One block for each compound: values may come before it.

Key:
[1] = Bioavailability after oral administration or intravenous injection in Wistar rats (free/total polyphenol in plasma, LC-MS/MS)
Experimental: (§1) The experimental results described below were obtained on the basis of a study carried out in healthy human beings and in healthy Wistar rats weighing approximately 250 grams.
An acclimation period was observed before beginning the experiments.
The rats received an administration per os of a volume of 5 ml of a solution of active product.
(§2) With regard to taking the blood samples from the rats and from the human beings, the blood was collected in tubes internally coated with EDTA and was then centrifuged at 3000 rpm (revolutions per minute) at ambient temperature for 45 min, and then for 15 min at a temperature of 4° C. The plasma was then collected and stored at −70° C. before analysis.
(§3) The analytical technique (LC-MS/MS for Liquid Chromatography coupled to tandem Mass Spectrometry) for measuring the active substance in the blood was based on the method described by Mata-Bilbao et al., published in 2007 in the Journal of Agricultural and Food Chemistry, volume 55, page 8857.
(§4) The free (+)-catechin was extracted from the plasma with a solution of phosphoric acid, EDTA and ascorbic acid and was then purified by SPE (solid phase extraction); in particular, it is an Oasis™ HLB extraction which is analyzed by LC-MS/MS. The quantification was carried out according to a standard calibration procedure with (+/−)-catechin-2,3,4-^13C3 as internal standard (SI).
The procedure is identical with regard to the extraction and the quantification of free quercetin or ECGC in the blood.
With regard to the extraction and quantification of the total (+)-catechin, the procedure is the same as that applied to the free (+)-catechin, with the exception of the fact that an additional step prior to the purification by SPE is carried out.
Each of the mixtures is then solubilized in water.
Each of the mixtures is solubilized in water.

[2] = Bioavailability after oral administration in human beings (free monomeric (+)-catechin in plasma, LC-MS/MS); conditions: in vivo, po
Experimental: as §1, §2, §3, §4
This complex salt is administered to a group A of 5 healthy volunteers.
This ct parameter makes it possible to calculate, from the data of table 1, the bioavailability of the (+)-catechin expressed in ng h/ml.

[3] = test system: gastric ulcers in Mastomys; test: Incidence of gastric ulcers and histamine level in the gastric mucosa in ovalbumin-sensitized Mastomys; type: in vivo; conditions: for histamine level (HL) in the gastric mucosa / number of animals exhibiting a gastric ulcer (NU): n = 12
Experimental: Mastomys in fact has a special system of cells which store histamine in the gastric mucosa; these cells can give rise to carcinoid tumors.
In this example, a sample of n=48 Mastomys are sensitized a first time by intraperitoneal injection of 3 μg of ovalbumin dissolved in 0.2 ml of saline solution containing 1 mg of aluminum hydroxide the ovalbumin which brings about anti-immunoglobulin E(IgE) and G(IgG) antibodies. After 7 days, a second injection of 1 mg of ovalbumin in 0.01 ml of saline solution is given in the gastric mucosa at the level of the corpus of the anesthetized animals, which causes an ulcerated lesion at the actual site of the injection.
The 48 rats are divided up into three groups: one of 24 and two of 12 individuals. The first group of 24 individuals (G1) received a placebo (concentrated NaCl solution at 0.15 M).
The histamine level is measured for the G1, G2 and G3 groups on the basis of a sample of n=12 individuals.

[4] = test system: cancer patients (lymphoplasmocytic lymphoma; clear cell renal carcinoma); test: Treatment of patients suffering from cancer with 500 mg [C:Lys:HCl] complex salt tablet per day; type: in vivo, human; conditions: for IgM level in the blood: lymphoplasmocytic lymphoma, 500 mg/day
Experimental: In the first patient a lymphoplasmocytic lymphoma (of Waldenström macroglobulinemia type) was detected during a post-operative blood test on day D0. The diagnosis is based on the electrophoretic detection of a monoclonal peak of immunoglobulins (IgM). This diagnosis was reconfirmed and the peak was assayed during a second analysis using the same detection by electrophoresis.
These immunoglobulins are found at a high concentration in the blood and in the urine. They therefore constitute real tumor markers. The assaying thereof gives an account of the number of sick cells and the extent of the disease and, consequently, makes it possible to monitor its progression under treatment.
Successive blood tests gave the following data for the IgM assay (in mg per 100 ml of plasma):
In the second patient, a left subclavicular cervical adenopathy was first of all detected on day D0. Next, 2 weeks later, a left renal adenocarcinoma was detected for this patient, which was followed by a nephrectomy of the left kidney 3 days after the detection of the adenocarcinoma in this kidney.
Thereafter, on day D0+3 months, a left cervical lymph node dissection is performed on the patient. This procedure was followed by a series of 15 radiotherapy sessions.
Starting from day D0+15 months (that is to say on day DT), the patient was orally administered a tablet of 500 mg of (+)-catechin hydrochlorolysinate per day.

rat skin = test: Total incorporation and incorporation into collagen of 3H-proline in the skin; type: in vivo, Wistar rats; conditions: 100 mg/kg by gavage for 5 days; for level of incorporation into collagen (IC) of 3H-hydroxyproline in rat skin / level of total incorporation (IT) of 3H-hydroxyproline in rat skin: treated subgroup
Experimental: To do this, a study was carried out in vivo on a batch of 24 female Wistar rats weighing from 95 to 115 g, divided into two groups C and D, each of 12 rats. For each group, the radioactive 3H-hydroxyproline, the specific activity of which is 13.6 Ci/10^−3 mol, was administered to all the animals by intraperitoneal injection of proline-L-(5-3H) at a dose, relative to the weight of the individuals, of 1 mCi/kg, which represents an activity in terms of radioactive 3H-proline of 100 μCi/individual.
6 rats of each group received a treatment based on monomeric (+)-catechin by gavage in a proportion of 100 mg/kg for 5 days before sacrifice. […] The group C received monomeric (+)-catechin hydrochlorolysinate, while the group D received monomeric (+)-catechin ascorbolysinate.
In table 8, the level of incorporation is measured by the number of disintegrations of the radioactive 3H-hydroxyproline per minute (dpm) per mg of dry weight. The higher this number, the higher the concentration of 3H-hydroxyproline.
In this comparative example, a group E of 12 Wistar rats weighing from 95 to 115 g, in which radioactive 3H-hydroxyproline, the specific activity of which is 13.6 Ci/10^−3 mol, was administered to all the individuals by intraperitoneal injection of proline-L-(5-3H) at a dose, relative to the weight of the individuals, of 1 mCi/kg, which represents an activity in terms of radioactive 3H-proline of 100 ρCi/individual.
6 rats of each group received a treatment based on pure monomeric (+)-catechin by gavage in a proportion of 100 mg/kg for 5 days before sacrifice.
In table 9, the level of incorporation is measured by the number of disintegrations of the radioactive 3H-hydroxyproline per minute (dpm) per mg of dry weight. The higher this number, the higher the concentration of 3H-hydroxyproline.

[5] = free catechin, per os, dose equivalent to 100 mg/kg catechin, 5 rats
[6] = oral administration versus placebo

Compound: Cl.Cl.Cl.Cl.Cl.NCCCCC(N)C(=O)O.NCCCCC(N)C(=O)O.NCCCCC(N)C(=O)O.NCCCCC(N)C(=O)O.NCCCCC(N)C(=O)O.Oc1cc(O)c2c(c1)O[C@H](c1ccc(O)c(O)c1)[C@@H](O)C2.Oc1cc(O)c2c(c1)O[C@H](c1ccc(O)c(O)c1)[C@@H](O)C2 [1:2.5:2.5]
ct, reported value on the curve in FIG. 5 ([1]; rat, in vivo, 25 mg/kg): 105 k ng min/ml

Compound: Cl.Cl.Cl.NCCCCC(N)C(=O)O.NCCCCC(N)C(=O)O.NCCCCC(N)C(=O)O.Oc1cc(O)c2c(c1)O[C@H](c1ccc(O)c(O)c1)[C@@H](O)C2 [1:3:3]
ct, calculated value ([1]; rat, in vivo, 25 mg/kg): 38 k ng min/ml

Compound: Cl.Cl.Cl.Cl.Cl.NCCCCC(N)C(=O)O.NCCCCC(N)C(=O)O.NCCCCC(N)C(=O)O.NCCCCC(N)C(=O)O.NCCCCC(N)C(=O)O.Oc1cc(O)c2c(c1)O[C@H](c1ccc(O)c(O)c1)[C@@H](O)C2 [1:5:5]
ct, calculated value ([1]; rat, in vivo, 25 mg/kg): 26 k ng min/ml

Compound: Cl.Cl.Cl.NCCCCC(N)C(=O)O.NCCCCC(N)C(=O)O.NCCCCC(N)C(=O)O.Oc1cc(O)c2c(c1)O[C@H](c1ccc(O)c(O)c1)[C@@H](O)C2.Oc1cc(O)c2c(c1)O[C@H](c1ccc(O)c(O)c1)[C@@H](O)C2 [C:Lys:HCl/1:1.5:1.5]
ct, reported value on the curve in FIG. 5 ([1]; rat, in vivo, 25 mg/kg): 142 k ng min/ml

Δct^q (difference of ct to QP) ([1]; Wistar, rat, in vivo, 25 mg/kg): 0%
Compound: O=c1c(O)c(-c2ccc(O)c(O)c2)oc2cc(O)cc(O)c12 [QP, quercetin, reference compound]

Compound: N=C(N)NCCCC(N)C(=O)O.Oc1cc(O)c2c(c1)O[C@H](c1ccc(O)c(O)c1)[C@@H](O)C2 [[C:Arg/1:1], Complex of Monomeric (+)-Catechin and of Arginine in a Molar Equivalence Ratio of 1:1]
Δct (difference of ct to CP) ([1]; free catechin, per os, dose equivalent to 100 mg/kg catechin): +21% | T (max) [1, 5]: 1 h

Compound: NCCCCC(N)C(=O)O.Oc1cc(O)c2c(c1)O[C@H](c1ccc(O)c(O)c1)[C@@H](O)C2 [[C:Lys/1:1], Complex of Monomeric (+)-Catechin and of Lysine in a Molar Equivalence Ratio of 1:1]
T (max) [1, 5]: 1 h

Compound: NCCCCC(N)C(=O)O.NCCCCC(N)C(=O)O.Oc1cc(O)c2c(c1)O[C@H](c1ccc(O)c(O)c1)[C@@H](O)C2 [[C:Lys/1:2], Complex of Monomeric (+)-Catechin and of Lysine in a Molar Equivalence Ratio of 1:2]
T (max) [1, 5]: 2 h | Δct (difference of ct to CP) ([1]; free catechin, per os, equivalent to 25 mg/kg (comparative example 4)): +17% | T (max) ([1]; free catechin, per os, equivalent to 25 mg/kg, 3 rats (comparative example 4)): 1 h | Δct (difference of ct to CP) ([1]; total (+)-catechin, per os, equivalent to 25 mg/kg): +24% | T (max) ([1]; total (+)-catechin, per os, equivalent to 25 mg/kg, 3 rats): 1 h

Compound: Cl.Cl.NCCCCC(N)C(=O)O.NCCCCC(N)C(=O)O.Oc1cc(O)c2c(c1)O[C@H](c1ccc(O)c(O)c1)[C@@H](O)C2 [[C:Lys:HCl/1:2:2]]
total plasma concentration (ct) of free monomeric (+)-catechin ([1]; rat, in vivo, iv, 25 mg/kg): 87 970 ng min/ml | total plasma concentration (ct) of total monomeric (+)-catechin ([1]; rat, in vivo, iv, 25 mg/kg): 277 040 ng min/ml | total plasma concentration (ct) of total monomeric (+)-catechin ([1]; rat, in vivo, po, 25 mg/kg): 479 585 ng min/ml

Compound: Cl.Cl.NCCCCC(N)C(=O)O.NCCCCC(N)C(=O)O.O=c1c(O)c(-c2ccc(O)c(O)c2)oc2cc(O)cc(O)c12 [[Q:Lys:HCl/1:2:2], reference compound]
Δct^q (difference of ct to QP) ([1]; rat, in vivo, 25 mg/kg): +18%

Compound: Cl.NCCCCC(N)C(=O)O.Oc1cc(O)c2c(c1)O[C@H](c1ccc(O)c(O)c1)[C@@H](O)C2 [monomeric (+)-catechin hydrochlorolysinate]
T (max) [2]: 0.5 h | increase in c (max) compared with pure monomeric (+)-catechin [2]: +103% | increase in speed of passage into blood, T (max), compared with pure monomeric (+)-catechin [2]: +166% | ct, reported value on the curve in FIG. 5 ([1]; rat, in vivo, 25 mg/kg): 127 k ng min/ml | histamine level (HL) in the gastric mucosa ([3]; G2, per os 2×300 mg a day): 37.91 ± 3.73 10^−6 mg/kg of protein | number of animals exhibiting a gastric ulcer (NU) ([3]; G2, per os 2×300 mg a day): 5 | histamine level (HL) in the gastric mucosa ([3]; G3, intraperitoneally 100 mg): 34.98 ± 3.52 10^−6 mg/kg of protein | number of animals exhibiting a gastric ulcer (NU) ([3]; G3, intraperitoneally 100 mg): 6 | decrease in the histamine level in the gastric mucosa [3, 6]: −18% | decrease in the number of animals exhibiting a gastric ulcer [3, 6]: −72% | IgM level in the blood ([4]; first patient, DT + 4 months): 2417 mg/100 ml | IgM level in the blood ([4]; first patient, DT + 9 months): 2410 mg/100 ml | IgM level in the blood ([4]; first patient, DT + 15 months): 2412 mg/100 ml | clinical course of IgM level under treatment ([4]; first patient, taken for a year and a half): stabilization below the maximum detected on day DT | clinical outcome ([4]; second patient, clear cell renal carcinoma, 500 mg/day from DT): stabilized the patient's condition | increase in the level of incorporation versus control (rat skin): +15% | level of incorporation into collagen (IC) of 3H-hydroxyproline in rat skin (rat skin): 1343 ± 48 dpm/mg | level of total incorporation (IT) of 3H-hydroxyproline in rat skin (rat skin): 6248 ± 124 dpm/mg

Compound: O=C(O[C@@H]1Cc2c(O)cc(O)cc2O[C@@H]1c1cc(O)c(O)c(O)c1)c1cc(O)c(O)c(O)c1 [pure EGCG, epigallocatechin gallate, reference compound]
plasma levels measured (below reliable limits of detection) ([1]; free EGCG, per os, equivalent to 25 mg/kg polyphenol): below 250 ng/ml

Compound: monomeric (+)-catechin ascorbolysinate
increase in the level of incorporation versus control (rat skin): +14% | level of incorporation into collagen (IC) of 3H-hydroxyproline in rat skin (rat skin): 1117 ± 49 dpm/mg | level of total incorporation (IT) of 3H-hydroxyproline in rat skin (rat skin): 5112 ± 259 dpm/mg
